Source: US8952024B2, “Herbicidal pyrimidone derivatives” (E I du Pont de Nemours and Company, priority 2009, dated 2015)

Assays:
Assay in all cases: Test B pre-/postemergence plant response
Type in all cases: in vivo
[1] = test system: Italian ryegrass (Lolium multiflorum)
Outline: (§1)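 Response scores were assigned visually after 13 to 15 days in a greenhouse, comparing treated pots with controls on a 0–100 scale where 100 denotes complete control. Preemergence treatments went onto freshly seeded loam/sand soil; postemergence treatments onto plants 2 to 18 cm tall.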

[2] = test system: Surinam grass (Brachiaria decumbens)
Outline: as §1

[3] = test system: bermudagrass (Cynodon dactylon)
Outline: as §1

[4] = test system: blackgrass (Alopecurus myosuroides)
Outline: as §1

[5] = test system: cocklebur (Xanthium strumarium)
Outline: as §1

[6] = test system: downy bromegrass (Bromus tectorum)
Outline: as §1

kochia (Kochia scoparia) = test system: kochia (Kochia scoparia)
Outline: as §1

[7] = test system: large crabgrass (Digitaria sanguinalis)
Outline: as §1

[8] = test system: morningglory (Ipomoea coccinea)
Outline: as §1

[9] = test system: ragweed (common ragweed, Ambrosia elatior)
Outline: as §1

[10] = test system: wheat (Triticum aestivum)
Outline: as §1

wild oat (Avena fatua) = test system: wild oat (Avena fatua)
Outline: as §1

[11] = test system: woolly cupgrass (Eriochloa villosa)
Outline: as §1

[12] = 250 g ai/ha, Preemergence, 0 to 100 scale
[13] = Postemergence, 31 g ai/ha, scale 0 to 100 (0 no effect, 100 complete control)
[14] = Postemergence, 62 g ai/ha, scale 0 (no effect) to 100 (complete control), 13 to 15 days
[15] = Postemergence, 125 g ai/ha, visual rating after 13 to 15 days, scale 0 (no effect) to 100 (complete control)
[16] = Postemergence, 250 g ai/ha, scale 0 to 100
[17] = Preemergence, 31 g ai/ha, scale 0 to 100 (0 no effect, 100 complete control)
[18] = Preemergence, 62 g ai/ha, scale 0 to 100 (0 no effect, 100 complete control)
[19] = Preemergence, 125 g ai/ha, 0 to 100 scale
[20] = Postemergence, 31 g ai/ha, 0 to 100 scale (0 no effect, 100 complete control)
[21] = Postemergence, 125 g ai/ha, scale 0 to 100 (0 no effect, 100 complete control)
[22] = Postemergence, 250 g ai/ha, scale 0 to 100 (0 no effect, 100 complete control), 13 to 15 days
[23] = 62 g ai/ha, postemergence, 0 is no effect, 100 is complete control, 13 to 15 days

Compound: 3-cyclohexyl-5-[(2-hydroxy-6-oxo-1-cyclohexen-1-yl)carbonyl]-2-phenyl-4(3H)-pyrimidinone [Compound 128]
- Plant response rating, Ryegrass, Italian [1, 12]: 0
- Plant response rating, Ryegrass, Italian [1, 13]: 10
- Plant response rating, Ryegrass, Italian [1, 14]: 10
- Plant response rating, Ryegrass, Italian [1, 15]: 40
- Ryegrass, Italian plant response rating [1, 16]: 40
- Plant response rating, Ryegrass, Italian [1, 17]: 0
- Plant response rating, Ryegrass, Italian [1, 18]: 0
- Ryegrass, Italian plant response rating [1, 19]: 0
- Plant response rating, Surinam Grass [2, 12]: 75
- Plant response rating, Surinam Grass [2, 13]: 60
- Plant response rating, Surinam Grass [2, 14]: 70
- Plant response rating, Surinam Grass [2, 15]: 85
- Surinam Grass plant response rating [2, 16]: 85
- Plant response rating, Surinam Grass [2, 17]: 0
- Plant response rating, Surinam Grass [2, 18]: 25
- Surinam Grass plant response rating [2, 19]: 35
- Plant response rating, Bermudagrass [3, 12]: 100
- Plant response rating, Bermudagrass [3, 13]: 80
- Plant response rating, Bermudagrass [3, 14]: 100
- Plant response rating, Bermudagrass ([3]; Postemergence, 125 g ai/ha, scale 0 to 100 (0 no effect, 100 complete control), 13 to 15 days): 100
- Bermudagrass plant response rating [3, 16]: 100
- Plant response rating, Bermudagrass [3, 17]: 98
- Plant response rating, Bermudagrass [3, 18]: 100
- Bermudagrass plant response rating [3, 19]: 100
- Plant response rating, Blackgrass [4, 12]: 60
- Plant response rating, Blackgrass [4, 13]: 5
- Plant response rating, Blackgrass [4, 14]: 5
- Plant response rating, Blackgrass [4, 15]: 40
- Blackgrass plant response rating [4, 16]: 40
- Plant response rating, Blackgrass [4, 17]: 0
- Plant response rating, Blackgrass [4, 18]: 5
- Blackgrass plant response rating [4, 19]: 30
- Plant response rating, Cocklebur [5, 12]: 100
- Plant response rating, Cocklebur [5, 13]: 90
- Plant response rating, Cocklebur [5, 14]: 100
- Plant response rating, Cocklebur [5, 15]: 100
- Cocklebur plant response rating [5, 16]: 100
- Plant response rating, Cocklebur [5, 17]: 35
- Plant response rating, Cocklebur [5, 18]: 75
- Cocklebur plant response rating [5, 19]: 95
- Plant response rating, Bromegrass, Downy [6, 12]: 5
- Plant response rating, Bromegrass, Downy [6, 13]: 20
- Plant response rating, Bromegrass, Downy [6, 14]: 35
- Plant response rating, Bromegrass, Downy [6, 15]: 45
- Bromegrass, Downy plant response rating [6, 16]: 45
- Plant response rating, Bromegrass, Downy [6, 17]: 0
- Plant response rating, Bromegrass, Downy [6, 18]: 0
- Bromegrass, Downy plant response rating [6, 19]: 0
- Plant response rating, Kochia (kochia (Kochia scoparia); [12]): 100
- Plant response rating, Kochia (kochia (Kochia scoparia); [13]): 25
- Plant response rating, Kochia (kochia (Kochia scoparia); [14]): 25
- Plant response rating, Kochia (kochia (Kochia scoparia); [15]): 75
- Kochia plant response rating (kochia (Kochia scoparia); [16]): 98
- Plant response rating, Kochia (kochia (Kochia scoparia); [17]): 15
- Plant response rating, Kochia (kochia (Kochia scoparia); [18]): 100
- Kochia plant response rating (kochia (Kochia scoparia); [19]): 100
- Plant response rating, Crabgrass, Large [7, 12]: 100
- Plant response rating, Crabgrass, Large [7, 13]: 80
- Plant response rating, Crabgrass, Large [7, 14]: 85
- Plant response rating, Crabgrass, Large [7, 15]: 100
- Crabgrass, Large plant response rating [7, 16]: 100
- Plant response rating, Crabgrass, Large [7, 17]: 60
- Plant response rating, Crabgrass, Large [7, 18]: 100
- Crabgrass, Large plant response rating [7, 19]: 100
- Plant response rating, Morningglory [8, 12]: 100
- Plant response rating, Morningglory [8, 13]: 15
- Plant response rating, Morningglory [8, 14]: 15
- Plant response rating, Morningglory [8, 15]: 70
- Morningglory plant response rating [8, 16]: 80
- Plant response rating, Morningglory [8, 17]: 0
- Plant response rating, Morningglory [8, 18]: 0
- Morningglory plant response rating [8, 19]: 35
- Plant response rating, Ragweed [9, 12]: 100
- Plant response rating, Ragweed [9, 13]: 100
- Plant response rating, Ragweed [9, 14]: 100
- Plant response rating, Ragweed [9, 15]: 100
- Ragweed plant response rating [9, 16]: 100
- Plant response rating, Ragweed [9, 17]: 65
- Plant response rating, Ragweed [9, 18]: 100
- Ragweed plant response rating [9, 19]: 100
- Plant response rating, Wheat [10, 12]: 5
- Plant response rating, Wheat [10, 13]: 30
- Plant response rating, Wheat [10, 14]: 35
- Plant response rating, Wheat [10, 15]: 40
- Wheat plant response rating [10, 16]: 45
- Plant response rating, Wheat [10, 17]: 0
- Plant response rating, Wheat [10, 18]: 0
- Wheat plant response rating [10, 19]: 0
- Plant response rating, Oat, Wild (wild oat (Avena fatua); [12]): 40
- Plant response rating, Oat, Wild (wild oat (Avena fatua); [13]): 50
- Plant response rating, Oat, Wild (wild oat (Avena fatua); [14]): 50
- Plant response rating, Oat, Wild (wild oat (Avena fatua); [15]): 70
- Oat, Wild plant response rating (wild oat (Avena fatua); [16]): 70
- Plant response rating, Oat, Wild (wild oat (Avena fatua); [17]): 0
- Plant response rating, Oat, Wild (wild oat (Avena fatua); [18]): 0
- Oat, Wild plant response rating (wild oat (Avena fatua); [19]): 10
- Plant response rating, Cupgrass, Woolly [11, 12]: 75
- Plant response rating, Cupgrass, Woolly [11, 13]: 55
- Plant response rating, Cupgrass, Woolly [11, 14]: 75
- Plant response rating, Cupgrass, Woolly [11, 15]: 90
- Cupgrass, Woolly plant response rating [11, 16]: 95
- Plant response rating, Cupgrass, Woolly [11, 17]: 0
- Plant response rating, Cupgrass, Woolly [11, 18]: 0
- Cupgrass, Woolly plant response rating [11, 19]: 15

Compound: O=C1CCCC(O)=C1C(=O)c1cnc(-c2cc(F)cc(F)c2)n(C2CCCCC2)c1=O [Compound 181]
- Plant response rating, Ryegrass, Italian [1, 20]: 10
- Plant response rating, Ryegrass, Italian [1, 21]: 60
- Plant response rating, Ryegrass, Italian [1, 22]: 65
- Plant response rating, Surinam Grass [2, 20]: 70
- Plant response rating, Surinam Grass [2, 21]: 95
- Plant response rating, Surinam Grass [2, 22]: 100
- Bermudagrass plant response rating (0 to 100 scale) [3, 23]: 100
- Plant response rating, Bermudagrass [3, 20]: 100
- Plant response rating, Bermudagrass [3, 21]: 100
- Plant response rating, Bermudagrass [3, 22]: 100
- Blackgrass plant response rating (0 to 100 scale) [4, 23]: 5
- Plant response rating, Blackgrass [4, 20]: 0
- Plant response rating, Blackgrass [4, 21]: 15
- Plant response rating, Blackgrass [4, 22]: 15
- Plant response rating, Cocklebur [5, 20]: 100
- Plant response rating, Cocklebur [5, 21]: 100
- Plant response rating, Cocklebur [5, 22]: 100
- Bromegrass, Downy plant response rating (0 to 100 scale) [6, 23]: 50
- Plant response rating, Bromegrass, Downy [6, 20]: 40
- Plant response rating, Bromegrass, Downy [6, 21]: 60
- Plant response rating, Bromegrass, Downy [6, 22]: 85
- Plant response rating, Kochia (kochia (Kochia scoparia); [20]): 65
- Plant response rating, Kochia (kochia (Kochia scoparia); [21]): 100
- Plant response rating, Kochia (kochia (Kochia scoparia); [22]): 100
- Plant response rating, Crabgrass, Large [7, 20]: 98
- Plant response rating, Crabgrass, Large [7, 21]: 100
- Plant response rating, Crabgrass, Large [7, 22]: 100
- Plant response rating, Morningglory [8, 20]: 95
- Plant response rating, Morningglory [8, 21]: 100
- Plant response rating, Morningglory [8, 22]: 100
- Plant response rating, Ragweed [9, 20]: 98
- Plant response rating, Ragweed [9, 21]: 100
- Plant response rating, Ragweed [9, 22]: 100
- Plant response rating, Wheat [10, 20]: 40
- Plant response rating, Wheat [10, 21]: 50
- Plant response rating, Wheat [10, 22]: 70
- Plant response rating, Oat, Wild (wild oat (Avena fatua); [20]): 65
- Plant response rating, Oat, Wild (wild oat (Avena fatua); [21]): 90
- Plant response rating, Oat, Wild (wild oat (Avena fatua); [22]): 100
- Plant response rating, Cupgrass, Woolly [11, 20]: 80
- Plant response rating, Cupgrass, Woolly [11, 21]: 100
- Plant response rating, Cupgrass, Woolly [11, 22]: 100
